Reference: US10472677B2, “Translational dysfunction based therapeutics” (Translational Therapeutics, Inc., priority 2005, dated 2019)

Tests used:
eIF4E W73A = biological target: T1, eIF4E W73A (Mus musculus, UniProt P63073, W73A); test: tryptophan fluorescence quenching titration, dorsal surface mutant; type: binding; details: relative to wild-type eIF4E
T1 construct: made in house
Description: For fluorescence titrations, mouse eIF4E, which differs from human eIF4E by four nonconserved amino acids, was produced as described. For NMR spectroscopy, mouse eIF4E was expressed as a fusion with the B1 domain of protein G (G4E, kind gift of Gerhard Wagner, Harvard University, Cambridge, Mass.), in BL21 (DE-3) cells by induction with 0.8 mM isopropyl-β-D-thiogalactopyranoside at 18° C. for 20 h in M9 minimal media containing 1 g/l ^15NH4Cl as the sole nitrogen source (Cambridge Isotopes). […] Eluate was dialyzed extensively against 0.1 M NaCl/50 mM Na2PO4 (pH 6.5)/5 mM DTT at 4° C. to produce apo-G4E, as verified by using NMR spectroscopy and fluorescence titrations. […]
Fluorescence measurements were performed by using a home-built fluorimeter, as described. All titrations were performed in 0.3 M NaCl/10 mM Na2PO4 (pH 7.5)/1 μM zinc in 0.3×0.3 cm^2 fluorescence cuvette (Hellma), by using eIF4E concentration of 2 μM. […] Corrected relative fluorescence intensities were normalized, and fluorescence quenching curves were fit to a heuristic single-site-binding expression: I/I0=Kd^n/(x^n+Kd^n) where x is ligand concentration, Kd is the apparent dissociation constant, and n is the Hill coefficient.

eIF4E (G4E) = biological target: T2, eIF4E (G4E) (UniProt P06654+P63073); test: electrospray mass spectrometry of purified G4E with Ribavirin and GTP; type: binding, mouse; details: mixture of Ribavirin and GTP, fourfold excess
T2 construct: made in house; host or cells: E. coli BL21 (DE-3); construct a gift of Gerhard Wagner
Description: FIG. 10. […] Mass spectra were recorded using the Agilent Technologies 1100 LC/MSD integrated liquid chromatograph single quadrupole electrospray mass spectrometer (ES-MS) operating in positive ion mode. […]; The solution was electrosprayed directly at […] using nebulizer pressure of 20 psi, drying nitrogen gas at 200° C. and 10 L/min, and capillary voltage of 4.5 kV. (a) ES-MS spectrum plotting ion abundance in 20 uL of the above mixture as a function of the mass/charge ratio is shown. […]. Thus, obtaining affinities from mass spectrometry data is confounded by these differences in ionization.

FaDu tumors in nude mice = type: in vivo
Description: Female 5- to 7-week-old athymic NCr-nu/nu mice were obtained from Taconic Farms. Human FaDu cells, derived from a hypopharyngeal squamous cell carcinoma, were obtained from the American Type Culture Collection. Mice were inoculated s.c. into the right flank with 0.5×10^6 cells in 50 μl PBS, and were randomly segregated into two groups of 10 mice each. After 1 week of engraftment, treatment was administered orally each day at a dose of 40 μg/kg Ribavirin. Tumor size was ascertained by measuring tumor diameter, and statistical significance was ascertained by using a paired t test.

Akt = Akt phosphorylation; type: cell-based; details: FIGS. 35 and 36
[1] = test system: 4E mediated apoptotic rescue; test: 4E mediated apoptotic rescue; type: cell-based; details: FIG. 37

T1 sequence (P63073 whole entry W73A): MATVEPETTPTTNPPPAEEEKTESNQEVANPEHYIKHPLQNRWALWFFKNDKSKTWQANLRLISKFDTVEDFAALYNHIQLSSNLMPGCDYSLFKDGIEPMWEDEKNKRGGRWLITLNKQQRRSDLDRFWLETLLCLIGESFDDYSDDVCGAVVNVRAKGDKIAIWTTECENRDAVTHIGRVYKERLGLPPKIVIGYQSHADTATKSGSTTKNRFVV
T2 sequence (P06654+P63073 fused): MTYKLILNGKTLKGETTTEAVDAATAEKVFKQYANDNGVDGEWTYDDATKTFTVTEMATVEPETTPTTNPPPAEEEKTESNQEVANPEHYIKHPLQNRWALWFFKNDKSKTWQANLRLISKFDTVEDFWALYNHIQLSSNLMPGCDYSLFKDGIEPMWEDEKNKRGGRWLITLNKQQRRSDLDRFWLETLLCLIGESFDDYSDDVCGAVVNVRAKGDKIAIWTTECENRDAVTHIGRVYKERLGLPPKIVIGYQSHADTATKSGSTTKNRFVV

NC(=O)c1ncn([C@@H]2O[C@H](CO)[C@@H](O)[C@H]2O)n1 [Ribavirin, 1-β-D-ribofuranosyl-1,2,4-triazole-3-carboxamide]
effect of W73A mutation on Ribavirin affinity (eIF4E W73A): no significant effect
binding to eIF4E observed by mass shift (eIF4E (G4E)): specific binding
mean tumor volume, fold less than untreated control (FaDu tumors in nude mice; 40 ug/kg orally daily, after 20 days, P=0.023): 6 fold
mean body concentration (FaDu tumors in nude mice; 40 ug/kg orally each day): ca. 1 uM
effect on Akt phosphorylation (Akt): inhibits
effect on 4E mediated apoptotic rescue [1]: blocks
